Results as given in patent EP1268431B1 (Wyeth, priority 2000, dated 2001).
Where “and” joins values, the source holds several entries; their conditions need not be identical. Identical values can stand only once. Like-named read-outs stand apart in the source and are kept apart here.

Assays:
c-Src = target: T1, c-Src (Homo sapiens, UniProt P12931); test: c-Src Kinase Assay (ELISA format); assay type: biochemical
T1 construct: purchased Upstate Biotechnologies
Method: Inhibitors of Src (partially purified preparation purchased from Upstate Biotechnologies) tyrosine kinase activity are analyzed in an ELISA format. […] Horseradish Peroxidase (HRP)-conjugated anti-phosphotyrosine is used to detect phosphorylated peptide via a color reaction. Conditions recommended by the manufacturer are employed.
Reaction conditions: Five microliter aliquots of each compound prepared fresh at the time of the assay are added as a solution in 10mM HEPES pH 7.5, 10% DMSO to the reaction well. Thirty-five microliters of reaction mix containing Src, buffer and peptide/bovine serum albumin mix are added to the compound wells and incubated at 30°C for 10 minutes (reaction buffer: 50mM TrisHCl pH 7.5, 10mM MgCl2, 0.1mM EGTA, 0.5mM Na3VO4). The reaction is started by addition of 10 microliters of ATP, incubated at 30°C for 1 hour, and stopped by addition of 20 microliters of 0.5M EDTA. The reaction mixture with the phosphorylated peptide is then transferred to a streptavidin-coated microtiter plate (provided in the kit) and allowed to bind for 20 minutes. Unbound peptide and reaction mixture is decanted and the plate is washed with PBS six times. HRP-conjugated phosphotyrosine antibody supplied in the kit is incubated with the plate for one hour, then decanted. The plate is again washed with PBS six times.
Activity is determined as % inhibition as calculated by the formula: (1 - Abs/Abs(max)) x 100 = % inhibition.

[1] = system: Rat2 fibroblasts stably transformed with a plasmid containing a CMV promotor controlled v-Src/Hu c-Src fusion gene; test: Anchorage Independent Src-transformed Fibroblast Proliferation Assay
[2] = Rattus norvegicus, Rat2, 120 h, read-out: anch-indep src-tx fib IC50, suspension growth, MTS on Day 5
[3] = read-out: anch-indep src-tx fib IC50, suspension growth, MTS on Day 5

T1 sequence (P12931 whole entry, species assumed): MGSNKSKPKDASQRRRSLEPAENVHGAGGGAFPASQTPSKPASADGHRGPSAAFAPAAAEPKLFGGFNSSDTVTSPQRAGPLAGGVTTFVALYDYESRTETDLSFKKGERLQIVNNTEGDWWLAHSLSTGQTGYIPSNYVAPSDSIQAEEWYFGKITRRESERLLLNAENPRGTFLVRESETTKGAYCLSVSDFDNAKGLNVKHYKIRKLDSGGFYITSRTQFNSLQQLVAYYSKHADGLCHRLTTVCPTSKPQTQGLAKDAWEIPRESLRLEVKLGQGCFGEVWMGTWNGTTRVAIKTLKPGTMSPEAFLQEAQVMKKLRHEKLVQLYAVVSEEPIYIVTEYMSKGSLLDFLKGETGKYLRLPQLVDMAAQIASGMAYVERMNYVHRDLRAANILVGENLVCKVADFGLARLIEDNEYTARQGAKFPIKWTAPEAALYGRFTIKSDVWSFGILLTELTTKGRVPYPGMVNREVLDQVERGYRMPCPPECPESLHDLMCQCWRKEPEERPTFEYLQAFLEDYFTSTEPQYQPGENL

| IC50 (c-Src) | inhibition at 0.1 µM (c-Src; at 100 nM) | SMILES | IC50 [1, 2] | IC50 [1, 3] | IC50 ([1]; Rattus norvegicus, Rat2, 120 h, read-out: anch-indep src-tx fib IC50) |
| --- | --- | --- | --- | --- | --- |
| 1.1 nM and 0.8 nM | – | COc1cc(Nc2c(C#N)cnc3cc(-c4cc(CN5CCOCC5)c(CN5CCOCC5)s4)ccc23)c(Cl)cc1Cl [Example 20, 7-[4,5-Bis(4-morpholinylmethyl)-2-thienyl]-4-(2,4-dichloro-5-methoxyanilino)-3-quinolinecarbonitrile] | 40 nM | 30 nM | – |
| 380 nM | – | COc1cc(Nc2c(C#N)cnc3cc(-c4ccsc4CN4CCOCC4)ccc23)c(Cl)cc1Cl [Example 66, 4-(2.4-Dichloro-5-methoxyanilino)-7-[2-(4-morpholinylmethyl)-3-thienyl]-3-quinolinecarbonitrile] | > 10000 nM | – | – |
| 1.9 nM | – | COc1cc(Nc2c(C#N)cnc3cc(-c4csc(CN5CCOCC5)c4)c(OC)cc23)c(Cl)cc1Cl [Example 36, 4-(2,4-Dichloro-5-methoxyanilino)-6-methoxy-7-[5-(4-morpholinylmethyl)-3-thienyl]-3-quinolinecarbonitrile] | 160 nM | 200 nM | – |
| 10.4 nM and 4 nM | – | N#Cc1cnc2cc(-c3ccc(CN4CCOCC4)o3)ccc2c1Nc1ccc(Cl)cc1Cl [Example 13, 4-(2,4-Dichloroanilino)-7-[5-(4-morpholinylmethyl)-2-furyl]-3-quinolinecarbonitrile] | 1510 nM | 1590 nM | – |
| 6.8 nM | – | COc1cc(Nc2c(C#N)cnc3cc(-c4ccc(CCCCN5CCOCC5)s4)ccc23)c(Cl)cc1Cl [Example 22, 4-(2,4-Dichloro-5-methoxyanilino)-7-{5-[4-(4-morpholinyl)butyl]-2-thienyl}-3-quinolinecarbonitrile] | 600 nM | – | – |
| 10 nM | – | COc1cc(Nc2c(C#N)cnc3cc(-c4cccc(CN5CCN(C)CC5)c4)ccc23)c(Cl)cc1Cl [Example 113, 4-(2,4-Dichloro-5-methoxyanilino)-7-{3-[(4-methyl-1-piperazinyl)methyl]phenyl}-3-quinolinecarbonitrile] | 1400 nM | – | – |
| 44 nM | – | N#Cc1cnc2cc(C=CCCCCN3CCOCC3)ccc2c1Nc1ccc(Cl)cc1Cl (mixture of isomers) [Example 16, 4-(2,4-Dichloroanilino)-7-[(E/Z)-6-(4-morpholinyl)-1-hexenyl]-3-quinolinecarbonitrile] | > 10000 nM | – | – |
| 42 nM | – | COc1cc(Nc2c(C#N)cnc3cc(-c4ccc(C=O)cc4)ccc23)c(Cl)cc1Cl [Example 83, 4-(2.4-Dichloro-5-methoxyanilino)-7-(4-formylphenyl)-3-quinolinecarbonitrile] | 3900 nM | – | – |
| 950 nM | – | COc1cc(Nc2c(C#N)cnc3cc(-c4cncn4CCN4CCOCC4)ccc23)c(Cl)cc1Cl [Example 64, 4-(2,4-Dichloro-5-methoxyanilino)-7-{1-[2-(4-morpholinyl)ethyl]-1H-imidazol-5-yl}-3-quinolinecarbonitrile] | > 10000 nM | – | – |
| 0.23 nM | – | CCN1CCN(c2ccc(-c3ccc4c(Nc5cc(OC)c(Cl)cc5Cl)c(C#N)cnc4c3)nc2)CC1 [Example 179, 4-[(2,4-dichloro-5-methoxyphenyl)amino]-7-[5-(4-ethyl-1-piperazinyl)-2-pyridinyl]-3-quinolinecarbonitrile] | 270 nM | – | – |
| 0.57 nM | – | COc1cc(Nc2c(C#N)cnc3cc(-c4ccc(CN5CCC(CC(=O)O)CC5)cc4)ccc23)c(Cl)cc1Cl [Example 100, (1-{4-[3-Cyano-4-(2,4-dichloro-5-methoxyanilino)-7-quinolinyl]benzyl}-4-piperidinyl)acetic acid] | 340 nM | 400 nM | – |
| > 1000 nM | – | COc1cc(Nc2c(C#N)cnc3cc(-c4cccn4C(=O)OC(C)(C)C)ccc23)c(Cl)cc1Cl [Example 164, tert-butyl 2-[3-cyano-4-(2,4-dichloro-5-methoxyanilino)-7-quinolinyl]-1H-pyrrole-1-carboxylate] | > 10000 nM | – | – |
| – | 10% | COc1ccc(C#Cc2ccc3c(Nc4cc(OC)c(Cl)cc4Cl)c(C#N)cnc3c2)cc1 [Example 90, 4-(2,4-Dichloro-5-methoxyanilino)-7-[2-(4-methoxyphenyl)ethynyl]-3-quinolinecarbonitrile] | > 10000 nM | – | – |
| 1.1 nM | – | COc1cc(Nc2c(C#N)cnc3cc(-c4ccc(CN5CCC[C@@H]5C(N)=O)o4)ccc23)c(Cl)cc1Cl [Example 47, (2R)-1-({5-[3-Cyano-4-(2,4-dichloro-5-methoxyanilino)-7-quinolinyl]-2-furyl}methyl)-2-pyrrolidinecarboxamide] | 1170 nM | – | – |
| 170 nM | – | COc1cc(Nc2c(C#N)cnc3cc(-c4cc5ccccc5s4)ccc23)c(Cl)cc1Cl [Example 120] | – | > 10000 nM | – |
| 750 nM | – | COc1cc(Nc2c(C#N)cnc3cc(C#Cc4ccc(C)cc4)ccc23)c(Cl)cc1Cl [Example 141, 4-(2,4-dichloro-5-methoxyanilino)-7-[2-(4-methylphenyl)ethynyl]-3-quinolinecarbonitrile] | > 10000 nM | – | – |
| 19 nM | – | COc1cc(Nc2c(C#N)cnc3cc(-c4ccc(CN5CCOCC5)cc4)c(OC)cc23)c(Cl)cc1Cl [Example 37, 4-(2,4-Dichloro-5-methoxyanilino)-6-methoxy-7-[4-(4-molpholinylmethyl)phenyl]-3-quinolinecarbonitrile] | 1590 nM | 1490 nM | – |
| 78 nM | – | COc1cc(Nc2c(C#N)cnc3cc(-c4cnc(CN5CCOCC5)n4C)c(OC)cc23)c(Cl)cc1Cl [Example 232, 4-(2,4-dichloro-5-methoxyanilino)-6-methoxy-7-[1-methyl-2-(4-morpholinylmethyl)-1H-imidazol-5-yl]-3-quinolinecarbonitrile] | 3500 nM | – | – |
| 0.67 nM | – | COc1cc(Nc2c(C#N)cnc3cc(-c4ccc(CN5CCCC(C(=O)O)C5)cc4)ccc23)c(Cl)cc1Cl (centres unmarked) [Example 149, 1-(4-{3-cyano-4-[(2,4-dichloro-5-methoxyphenyl)amino]-7-quinolinyl}benzyl)-3-piperidinecarboxylic acid] | 2500 nM | – | – |
| 130 nM | – | COc1cc(Nc2c(C#N)cnc3cc(-c4cc5ccccc5o4)ccc23)c(Cl)cc1Cl [Example 119, 7-(1-Benzofuran-2-yl)-4-(2,4-dichloro-5-methoxyanilino)-3-quinolinecarbonitrile] | > 10000 nM | – | – |
| 2.9 nM | – | COc1cc(Nc2c(C#N)cnc3cc(-c4ccc(CN5CCOCC5)o4)ccc23)c(Cl)cc1Cl [Example 53, 4-(2.4-Dichloro-5-methoxyanilino)-7-[5-(4-morpholinylmethyl)-2-furyl]-3-quinolinecarbonitrile] | 250 nM | – | – |
| 4 nM | – | COc1cc(Nc2c(C#N)cnc3cc(-c4ccc(C=O)o4)ccc23)c(Cl)cc1Cl [Example 6, 4-(2,4-Dichloro-5-methoxyanilino)-7-(5-formyl-2-furyl)-3-quinolinecarbonitrile] | 1600 nM | – | – |
| 44 nM | – | COc1cc(Nc2c(C#N)cnc3cc(/C=C/C(=O)O)ccc23)c(Cl)cc1Cl [Example 99, (E)-3-[3-Cyano-4-(2,4-dichloro-5-methoxyanilino)-7-quinolinyl]-2-propenoic acid] | > 10000 nM | – | – |

| SMILES | IC50 (c-Src) | inhibition at 0.1 µM (c-Src; at 100 nM) | IC50 [1, 2] | IC50 [1, 3] | IC50 ([1]; Rattus norvegicus, Rat2, 120 h, read-out: anch-indep src-tx fib IC50) |
| --- | --- | --- | --- | --- | --- |
| COc1cc(Nc2c(C#N)cnc3cc(-c4ccc(CN5CCCC5C(N)=O)cc4)ccc23)c(Cl)cc1Cl (stereo in doubt) [Example 84, (2R)-1-{4-[3-Cyano-4-(2,4-dichloro-5-methoxyanilino)-7-quinolinyl]benzyl}-2-pyrrolidinecarboxamide] | 7.5 nM | – | – | – | 770 nM |
